Reference: paper PMC12040169 (PLOS Biology, 2025)

assay: in vitro; conditions: human, hela cells, % viability

Compound | viability at 28.5 h, 10 µM [%]
COc1cc(F)cc(OC2CCNCC2)c1NC(=O)c1cnccn1 [CBK050296T] | 90.3
CCCCN1CCC(CNc2nccc3sc(S(=O)(=O)NC4CCC4)cc23)CC1 [CBK038275C] | 95.9
CCCCOC(=O)c1ccc(N2C(=O)CC(N3CCN(c4ccc(F)cc4)CC3)C2=O)cc1 (stereo not shown) [CBK265527] | 94.6
COc1ccc(C)cc1S(=O)(=O)N(CCO)c1cc(N2CCNCC2)c2occc2c1 [CBK067894C] | 86
CC(C)[C@H](CO)Nc1nc(-c2ccc(S(C)(=O)=O)cc2)cnc1N [CBK063718] | 110
CCc1nn2c(=O)cc(CNc3ccccc3CN(C)C(C)=O)nc2s1 [CBK305604] | 114
CCCc1nnc(NC(=O)CN2CCc3c(c(CO)nn3C)C2)s1 [CBK307172] | 98.4
Cn1cnnc1C1CCCN(C(=O)NCc2cccc(F)c2)C1 (stereo not shown) [CBK305792] | 101
CC(C)(c1ccc(Oc2ccc3c(c2)C(=O)N(c2nccs2)C3=O)cc1)c1ccc(Oc2ccc3c(c2)C(=O)N(c2nccs2)C3=O)cc1 [CBK262258] | 103
O=C1NC2(CCN(C(=O)C(F)(F)F)CC2)Oc2ccccc21 [CBK283906] | 94
CC(=O)Nc1ccc(-c2ccc(C(=O)N3CCN(C(=O)OCc4ccccc4)CC3)cn2)cc1 [CBK160185] | 87.6
Cn1cc(CN2CCCC(c3cccc(Cc4ccc(Cl)cc4)n3)C2)cn1 (stereo not shown) [CBK286242] | 81.8
CN(C1CCCCC1)C1CCN(CCc2ccccc2)CC1 [CBK261918] | 97.5
COc1ccc(-n2nc([N+](=O)[O-])c(NCc3ccccn3)[n+]2[O-])cc1 [CBK268430] | 96.3
CCn1c(=O)[nH]c(=O)c2cnc(-c3ccc(OC)cc3)nc21 [CBK291259] | 107
N#C/C(=C\c1ccc(Oc2ccc(C(F)(F)F)cc2[N+](=O)[O-])cc1)c1nc2ccccc2[nH]1 [CBK263878] | 92.4
CCNc1cc(N2CCN(C)CC2)ccc1NS(=O)(=O)c1ccc(F)cc1F [CBK001496C] | 95.8

Compound | viability at 28.5 h, 10 µM [%]
CC1CN(c2nccn(CCOc3ccc(Br)cc3)c2=O)CCN1 (stereo not shown) [CBK028596T] | 94.2
COC(=O)c1ccsc1NS(=O)(=O)c1ccccc1 [CBK026667] | 88.7
N=C1NC(=O)/C(=C\c2cccc(C(=O)O)c2)S1 [CBK264832] | 97.6
CCCn1nc(C)c(-c2cncn2CC(C)n2nc(C)cc2C)c1C (stereo not shown) [CBK281793] | 103
COc1ccc2[nH]c(Sc3c([N+](=O)[O-])nc(C)n3Cc3ccccc3)nc2c1 [CBK263235] | 80.7
CCCCC(c1nnn[nH]1)n1nnc2ccccc21 (stereo not shown) [CBK023526] | 93.6
COc1ccc(C(=O)NC(NC(=S)Nc2cccc3cccnc23)C(Cl)(Cl)Cl)cc1 (stereo not shown) [CBK261028] | 94.6
O=C(NCc1ccco1)c1cc(-c2ccc(Cl)cc2)cnc1N1CCOCC1 [CBK076352] | 87
Cc1ccc(-c2cc(C(=O)N(C)Cc3cccn3C)[nH]n2)o1 [CBK283324] | 100
Cc1ccc2c(C(=O)Nc3sc4c(c3C(N)=O)CCCCC4)cc(-c3ccccn3)nc2c1C [CBK267749] | 94
C(=C\c1ccccc1)/CN1CCN(c2ncccn2)CC1 [CBK261909] | 92.3
Cc1nc(C)c(C(=O)c2coc3ccc(O)cc23)o1 [CBK027631] | 94.1
O=C(CN1CCC(c2ccccc2F)CC1)N1CCCCC1 [CBK283577] | 97.3
CS(=O)(=O)Nc1nn(-c2ccc(NC(=O)c3ccno3)cc2)c2ccccc12 [CBK048591] | 99.5
O=C(NCc1ccc(C(=O)O)cc1)NC1CCCCC1 [CBK286980] | 84.5
Cc1cc(CN2CCCN(S(=O)(=O)c3ccc(C(F)(F)F)cc3Cl)CC2)cc(C)c1O [CBK063102] | 91.2
COc1ccccc1C1OC(=O)C[C@@H]1C(=O)Nc1cc(C(C)(C)C)on1 (stereo partly shown) [CBK021439] | 110
